{
  "source": "patent US8741659B2",
  "about": "“Composition for measuring the binding affinity between nucleic acid and test substance, and use thereof” (Osaka University, priority 2007, dated 2014)",
  "tested_on": "RRE",
  "test": "Displacement assay using Rev peptide after formation of complex with RRE",
  "type": "binding, HIV-1",
  "conditions": "compound and RRE each 2 μM, Rev protein 0-4.0 μM",
  "method": "In this Example, a binding affinity between a test substance and RRE was evaluated, with use of the compounds, X2S, X2S(3), X2S(4), X2S(5), X2S(2-Me), and 3,6-X2S(2). As the test substance, Rev protein used in Example 5 was used.\nFirstly, in the same manner as in Example 3, the above compounds and RREs were respectively dissolved in cacodylate buffer solutions (sodium cacodylate: 10 mM pH 7.0, NaCl: 100 mM) each at 2 μM, so that an X2S-RRE solution, an X2S(3)-RRE solution, an X2S(4)-RRE solution, an X2S(5)-RRE solution, an X2S(2-Me)-RRE solution, and a 3,6-X2S(2)-RRE solution were prepared.\nTo each of these solutions, Rev protein was added in stages at 0 μM, 0.4 μM, 0.8 μM, 1.2 μM, 1.6 μM, 2.0 μM, 2.4 μM, 2.8 μM, 3.2 μM, 3.6 μM, and 4.0 μM. Further, a fluorescence intensity was measured at each concentration. The fluorescence intensity was measured in the same manner as that described in Example 14.\nEach of FIGS. 43 to 48 is a view illustrating a result of the measurement of a binding affinity between Rev protein and RRE. […] In each of FIGS. 43 to 48, the horizontal axis represents the fluorescence wavelength, whereas the vertical axis represents the fluorescence intensity. […] Further, along the direction of the arrow extending from the curved line at the bottom, the curved lines, showing the respective results, are arranged in order of increasing amount of the test substance which was added.\nFIG. 49 is a view illustrating a relationship between an amount of Rev added and a fluorescence intensity, in connection with X2S, X2S(3), X2S(4), X2S(5), X2S(2-Me), and 3,6-X2S(2). Further, FIG. 49 is also a view plotting, based on the results illustrated in FIGS. 43 to 48, the fluorescence intensities detected at the fluorescence wavelength at which the respective fluorescence peaks were observed. FIG. 50 is a graph illustrating a relationship between an amount of Rev added and a recovery rate of the fluorescence intensity. In FIG. 49, the vertical axis represents the fluorescence intensity. In FIG. 50, the vertical axis represents the recovery rate of the fluorescence intensity. In each of FIGS. 49 and 50, the horizontal axis represents the amount of Rev added. That is, each of FIGS. 49 and 50 reflects amounts of the above compounds liberated from RREs due to the addition of Rev.\nThe recovery rate of the fluorescence intensity was obtained by dividing (i) a maximum value of the fluorescence intensity detected at each Rev concentration ranging from 0 μM to 4.0 μM in each of FIGS. 43 to 48 by (ii) a maximum value of the fluorescence intensity of the curved line at the top in each of FIGS. 43 to 48.\nIn this Example, 1-Pyrenemethanamide, hydrochloride was used to measure a binding affinity between a test substance and RRE. As the test substance, Rev protein used in Example 5 was used.\nFirstly, in the same manner as in Example 3, 1-Pyrenemethanamide, hydrochloride and RRE were dissolved in a cacodylate buffer solution (sodium cacodylate: 10 mM, pH 7.0; NaCl: 100 mM) each at 2 μM, so that a 1-Pyrenemethanamide, hydrochloride-RRE solution was prepared.\nTo the solution, Rev protein was added in steps at 0 μM, 0.4 μM, 0.8 μM, 1.2 μM, 1.6 μM, 2.0 μM, 2.4 μM, 2.8 μM, 3.2 μM, 3.6 μM, and 4.0 μM. Further, the solution at each concentration was irradiated with light having an excitation wavelength of 340 nm, and a fluorescence intensity was measured. A device used for measuring a fluorescence intensity and a variation in a slit width were the same as those in Example 13.\nFIG. 55 is a view illustrating a result of the measurement of a binding affinity between Rev protein and RRE. The horizontal axis represents the fluorescence wavelength, whereas the vertical axis represents the fluorescence intensity. […] Further, along a bottom-to-top direction, the curved lines, showing the respective results, are arranged in order of increasing amount of the test substance which was added. […]",
  "data": [
    {"smiles": "NCCOc1ccc2oc3ccc(OCCN)cc3c(=O)c2c1", "note": "[X2S, 2,7-bis(2-aminoethoxy)xanthen-9-one]", "values": [
      {"measurement": "fluorescence intensity in displacement assay", "value": "high"},
      {"measurement": "recovery rate of the fluorescence intensity", "value": "good"}
    ]}
  ]
}
